Assay results from patent US9023858B2, “Substituted pyrido[2,3-d]pyrimidines as delta-5-desaturase inhibitors” (Takeda Pharmaceutical Company Limited, priority 2010, dated 2015).
Counter-ions that a name gives are not always drawn.

Experiments:
delta-5-desaturase [1] = target: T1, delta-5-desaturase (Rattus norvegicus, UniProt Q920R3); test: Inhibitory activity on binding of [3H]-labelled Reference Example 1 ligand to delta-5-desaturase (rat liver microsome fraction); details: test compound 10 μM; for inhibition at 10 µM: 3 nM tritiated ligand of Reference Example 1, read-out: Binding inhibitory activity against compound bind to delta-5-desaturase Binding inhibition rate (%) at 10 μM
T1 construct: a rat liver microsome fraction (10 μl) diluted to 3 mg/ml with a microsome buffer; from tissue; host or cells: rat liver microsome fraction
T1 sequence (Q920R3 whole entry): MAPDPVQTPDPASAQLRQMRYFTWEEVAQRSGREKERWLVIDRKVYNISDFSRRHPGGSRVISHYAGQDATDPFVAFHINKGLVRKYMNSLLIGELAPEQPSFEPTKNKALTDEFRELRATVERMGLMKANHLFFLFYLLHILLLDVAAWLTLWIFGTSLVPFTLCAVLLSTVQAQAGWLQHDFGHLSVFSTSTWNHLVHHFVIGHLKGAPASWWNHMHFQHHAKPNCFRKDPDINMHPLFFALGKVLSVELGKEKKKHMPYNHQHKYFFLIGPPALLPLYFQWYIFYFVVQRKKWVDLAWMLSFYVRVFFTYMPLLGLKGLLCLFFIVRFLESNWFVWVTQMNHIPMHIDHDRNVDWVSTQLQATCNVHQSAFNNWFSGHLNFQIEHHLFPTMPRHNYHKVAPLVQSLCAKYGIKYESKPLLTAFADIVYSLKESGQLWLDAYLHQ
Procedure: Inhibitory Activity on Binding of N-[2-({4-oxo-3-[4-(2,2,2-trifluoroethoxy)[2,6-^3H2]phenyl]-3,4-dihydrothieno[3,4-d]pyrimidin-2-yl}sulfanyl)ethyl]acetamide (Reference Example 1) to delta-5-desaturase)
All tests were performed at room temperature at 200 μL/well. A rat liver microsome fraction (30 μg/well) was preincubated with a test compound at a final concentration of 10 μM for 15 min in an assay buffer (10 mM Tris-HCl (pH 7.5), 100 mM KCl, 10 mM NaF, 3 mM MgCl2, 0.005% Tween20 and 1 mM GSH). N-[2-({4-oxo-3-[4-(2,2,2-trifluoroethoxy) [2,6-^3H2]phenyl]-3,4-dihydrothieno[3,4-d]pyrimidin-2-yl}sulfanyl)ethyl]acetamide was added to a final concentration of 3 nM and the mixture was incubated for 150 min. For Bound/Free separation, the membrane fraction was added on a GF/C glass filter using a cell harvester. The GF/C glass filter was washed 5 times with 300 μl of ice-cooled assay buffer (without 0.005% Tween) to separate the ligand bound to delta-5-desaturase. 50 μl of MicroScinti 0 was added, and the radioactivity on the filter was measured by TopCount. To evaluate non-specific binding, 10 μM N-[2-({4-oxo-3-[4-(2,2,2-trifluoroethoxy)phenyl]-3,4-dihydrothieno[3,4-d]pyrimidin-2-yl}sulfanyl)ethyl]acetamide was used. The inhibitory rate (%) of the test compound (10 μM) on the binding of N-[2-({4-oxo-3-[4-(2,2,2-trifluoroethoxy) [2,6-^3H2]phenyl]-3,4-dihydrothieno[3,4-d]pyrimidin-2-yl}sulfanyl)ethyl]acetamide to delta-5-desaturase was determined.

delta-5-desaturase [2] = target: T1, delta-5-desaturase; test: Delta-5-desaturase inhibitory activity using rat liver microsome; format: biochemical; details: test compound 10 μM
Procedure: Delta-5-Desaturase Inhibitory Activity Using Rat Liver Microsome
The inhibitory activity of the test compound on delta-5-desaturase was measured by the method described below. To a solution of the test compound in DMSO prepared in advance was secondarily diluted with a buffer (300 mM NaH2PO4 [pH 7.4], 450 mM KCl, 30 mM NaF, 9 mM MgCl2, 4.5 mM glutathione [reduced form], 0.3% BSA [fatty acid free, SIGMA]) to give an assay buffer. The assay buffer (10 μl) was dispensed to a polypropylene deep 96-well block, and a rat liver microsome fraction (10 μl) diluted to 3 mg/ml with a microsome buffer (10 mM Tris-HCl [pH 7.4], 1 mM EDTA, 250 mM sucrose) was added. The enzyme reaction was started by adding 9 mM NADH, 9 mM ATP, 0.9 mM CoA, 10 μCi/ml (8E,11E,14E)-(1-^14C)eicosa-8,11,14-trienoic acid (PerkinElmer Inc.) (10 μl). The enzyme reaction was performed for 120 min at room temperature, and discontinued by the addition of 10 μl of 2.5M NaOH. After discontinuation of the reaction, the plate was sealed and incubated overnight at 55° C. to allow saponification. The fatty acid was extracted with solvent based on the Bligh & Dyer method described in Can. J. Biochem. Physiol., vol. 37, page 911 (1959) by adding formic acid:methanol:chloroform (1:6:3) (200 μl), maintaining the single layer state, sufficiently stirring the mixture and adding pure water (120 μl) for separation into two layers. The lower chloroform layer (10 μl) was spotted on a reversed-phase TLC plate (RP-18, 1154230001, Merck Japan, Ltd.), developed with acetonitrile:pure water:acetic acid (95:4.5:0.5), and the dried TLC plate was transcribed on Imaging Plate (Fuji Photo Film Co., Ltd.) for 5 hr or longer. The detection was performed using BAS-5000 (Fuji Photo Film Co., Ltd.), and the obtained spot image was numerically converted by Multi Gauge Ver2.3 (Fuji Photo Film Co., Ltd.) and a delta-5-desaturase inhibitory rate (%) of 10 μM test compound was determined.

delta-5-desaturase [3] = target: T2, delta-5-desaturase (Homo sapiens, UniProt O60427); test: Delta-5-desaturase inhibitory activity using HepG2 cell; format: cell-based; details: test compound 1 μM
T2 construct: endogenous in cells; host or cells: HepG2
T2 sequence (O60427 whole entry): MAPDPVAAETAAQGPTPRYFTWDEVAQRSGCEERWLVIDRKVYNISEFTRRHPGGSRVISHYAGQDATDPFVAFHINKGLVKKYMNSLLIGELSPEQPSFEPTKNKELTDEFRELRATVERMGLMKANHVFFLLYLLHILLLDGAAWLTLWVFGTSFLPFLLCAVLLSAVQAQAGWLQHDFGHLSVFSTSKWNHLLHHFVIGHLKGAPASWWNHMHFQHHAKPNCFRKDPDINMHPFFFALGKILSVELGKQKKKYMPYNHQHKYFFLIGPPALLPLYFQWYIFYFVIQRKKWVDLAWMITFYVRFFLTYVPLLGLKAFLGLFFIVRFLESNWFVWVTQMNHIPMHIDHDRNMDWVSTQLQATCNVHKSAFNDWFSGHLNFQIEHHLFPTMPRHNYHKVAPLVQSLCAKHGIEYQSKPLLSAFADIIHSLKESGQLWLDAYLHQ
Procedure: Delta-5-Desaturase Inhibitory Activity Using HepG2 Cell
HepG2 was plated on a 96-well plate at 1×10^5 cells/well, and cultured overnight in DMEM (Dulbecco's modified Eagle medium) containing 10% FBS (fetal bovine serum). After washing (200 μL×2) with PBS (phosphate buffered saline), 40 μL of a reaction medium (DMEM, penicillin/streptomycin, 0.3% BSA) containing the test compound was added, and the mixture was preincubated in a CO2 incubator at 37° C. for 30 min. The reaction was started by adding a reaction medium (20 μL) containing 0.1 μCi [^14C]Eicosatrienoic acid, and the mixture was incubated in a CO2 incubator at 37° C. Incubation was performed for 3 hr, the cells were washed twice with 200 μL of PBS, detached with 50 μL of trypsin-EDTA and placed on a 96-deep well block. Furthermore, 20 μL of 2.5N NaOH was added, the plate was sealed and incubated overnight at 55° C. to allow saponification. The fatty acid extraction included acidifying with 10 μL of formic acid, adding chloroform:methanol (1:4), stirring, and further adding 200 μL of pure water to separate into two layers. The operation after development with TLC followed the method of detection system using TLC in a system using a rat liver microsome. A delta-5-desaturase inhibitory rate (%) of 1 μM test compound was determined.

delta-5-desaturase [4] = target: T3, delta-5-desaturase (Mus musculus, UniProt Q920L1); test: Delta-5-desaturase inhibitory action in vivo (liver AA/DGLA ratio in mice); details: 3 mg/kg by gavage for 4 days; male C57BL/6J mice; liver phospholipid fraction; solvent administration group as 100%
T3 construct: the mice were anesthetized, and the liver was isolated; tissue CLEA Japan, Inc; host or cells: liver of C57BL/6J mice (in vivo dosing)
T3 sequence (Q920L1 1-447): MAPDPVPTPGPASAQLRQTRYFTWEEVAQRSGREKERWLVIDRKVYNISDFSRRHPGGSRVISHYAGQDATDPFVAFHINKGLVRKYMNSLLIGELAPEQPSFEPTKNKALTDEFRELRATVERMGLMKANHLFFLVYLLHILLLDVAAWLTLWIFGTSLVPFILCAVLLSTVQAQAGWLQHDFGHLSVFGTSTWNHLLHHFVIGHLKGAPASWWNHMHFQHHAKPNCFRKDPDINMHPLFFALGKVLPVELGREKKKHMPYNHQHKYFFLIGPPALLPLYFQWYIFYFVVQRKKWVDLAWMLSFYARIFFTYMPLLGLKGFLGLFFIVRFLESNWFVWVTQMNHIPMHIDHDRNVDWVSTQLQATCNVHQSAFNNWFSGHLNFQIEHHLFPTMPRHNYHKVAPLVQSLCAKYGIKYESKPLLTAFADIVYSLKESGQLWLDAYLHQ
Procedure: Delta-5-Desaturase Inhibitory Action In Vivo
The delta-5-desaturase inhibitory action of the test compound in vivo was evaluated by the following method. A suspension of a test compound (3 mg/kg) in 0.5% methylcellulose was administered by gavage every morning at 10 mL/kg for 4 days to 7- to 9-week-old male normal mice (C57BL/6J, CLEA Japan, Inc.) acclimated with a normal chow feed (CE-2, CLEA Japan, Inc.) in individual cages. In the next morning of the final administration, the mice were anesthetized, and the liver was isolated. Total lipid was extracted from about 40 mg of a liver sample with hexane-propanol solution, and a phospholipid fraction was extracted using a solid phase extraction column (Sep-Pak Vac NH2, Waters) and labeled with an esterified long-chain and short-chain fatty acid labeling reagent (YMC). The arachidonic acid and dihomo-γ-linolenic acid contents of the sample after labeling were measured by high performance liquid chromatography (Agilent 1200, Agilent Technologies). The arachidonic acid (AA) content was divided by the content of dihomo-γ-linolenic acid (DGLA) to obtain an AA/DGLA ratio. The decrease rate of the test compound administration group was calculated based on the AA/DGLA ratio of the solvent administration group as 100%, which was used as an index of the liver delta-5-desaturase inhibitory action in vivo.

Row | SMILES | inhibition at 10 µM (delta-5-desaturase [1]) [%] | inhibition at 10 µM (delta-5-desaturase [2]) [%] | inhibition at 1 µM (delta-5-desaturase [3]) [%] | lowering rate (%) of arachidonic acid/dihomo-γ-linolenic acid ratio (delta-5-desaturase [4]) [%] | Binding inhibitory activity against compound bind to delta-5-desaturase Binding inhibition rate (%) at 10 μM (delta-5-desaturase [1]; 3 nM tritiated ligand of Reference Example 1, sodium salt) [%] | delta-5-desaturase inhibitory activity (at liver microsome) Inhibitory activity (%) at 10 μM (delta-5-desaturase [2]; sodium salt, 10 µM) [%]
1 | CCSc1nc2nc(OC)ccc2c(=O)n1-c1ccc(OCC(F)(F)F)cc1 [Example 1, 2-(ethylsulfanyl)-7-methoxy-3-[4-(2,2,2-trifluoroethoxy)phenyl]pyrido[2,3-d]pyrimidin-4(3H)-one] | 94 | 100 | 101 | 73 | – | –
2 | CCOc1nc2c(c(=O)n1-c1ccc(OCC(F)(F)F)cc1)CCC(=O)N2 [Example 23, 2-ethoxy-3-[4-(2,2,2-trifluoroethoxy)phenyl]-5,6-dihydropyrido[2,3-d]pyrimidine-4,7(3H,8H)-dione] | 91 | 96 | 93 | 67 | – | –
3 | O=c1ccc2c(=O)n(-c3ccc(OCC(F)(F)F)cc3)c(OCC(F)F)nc2[nH]1 [Example 16, 2-(2,2-difluoroethoxy)-3-[4-(2,2,2-trifluoroethoxy)phenyl]pyrido[2,3-d]pyrimidine-4,7(3H,8H)-dione] | 96 | 101 | 102 | 69 | – | –
4 | CCOc1nc2[nH]c(=O)ccc2c(=O)n1-c1ccc(OCC(F)(F)F)cc1 [Example 10, 2-ethoxy-3-[4-(2,2,2-trifluoroethoxy)phenyl]pyrido[2,3-d]pyrimidine-4,7(3H,8H)-dione sodium salt] | – | – | – | 71 | 94 | 98
5 | O=C1CCc2c(nc(CCC(F)(F)F)n(-c3ccc(OCC(F)(F)F)cc3)c2=O)N1 [Example 39, 3-[4-(2,2,2-trifluoroethoxy)phenyl]-2-(3,3,3-trifluoropropyl)-5,6-dihydropyrido[2,3-d]pyrimidine-4,7(3H,8H)-dione] | 91 | – | 98 | 67 | – | –

Other lines, results leading:

Row | inhibition at 10 µM (delta-5-desaturase [1]) [%] | inhibition at 10 µM (delta-5-desaturase [2]) [%] | inhibition at 1 µM (delta-5-desaturase [3]) [%] | lowering rate (%) of arachidonic acid/dihomo-γ-linolenic acid ratio (delta-5-desaturase [4]) [%] | Binding inhibitory activity against compound bind to delta-5-desaturase Binding inhibition rate (%) at 10 μM (delta-5-desaturase [1]; 3 nM tritiated ligand of Reference Example 1, sodium salt) [%] | delta-5-desaturase inhibitory activity (at liver microsome) Inhibitory activity (%) at 10 μM (delta-5-desaturase [2]; sodium salt, 10 µM) [%] | SMILES
6 | 99 | 104 | 102 | 69 | – | – | O=c1ccc2c(=O)n(-c3ccc(OCC(F)(F)F)cc3)c(OC3CCC(F)(F)CC3)nc2[nH]1 [Example 15, 2-[(4,4-difluorocyclohexyl)oxy]-3-[4-(2,2,2-trifluoroethoxy)phenyl]pyrido[2,3-d]pyrimidine-4,7(3H,8H)-dione]
7 | 92 | 100 | 101 | 68 | – | – | O=C1CCc2c(nc(OCC(F)(F)F)n(-c3ccc(OCC(F)(F)F)cc3)c2=O)N1 [Example 22, 2-(2,2,2-trifluoroethoxy)-3-[4-(2,2,2-trifluoroethoxy)phenyl]-5,6-dihydropyrido[2,3-d]pyrimidine-4,7(3H,8H)-dione]
8 | 99 | 102 | 96 | 64 | – | – | CCOc1nc2nc(OC)ccc2c(=O)n1-c1ccc(OCC(F)(F)F)cc1 [Example 4, 2-ethoxy-7-methoxy-3-[4-(2,2,2-trifluoroethoxy)phenyl]pyrido[2,3-d]pyrimidin-4(3H)-one]
